Earlier results as cited in US6806373B2, “Process for preparing leflunomide form I” (Teva Pharmaceutical Industries Ltd., priority 1999, dated 2004).

How the values were obtained:
[1] = solid form, according to AU-A-78870/98
[2] = according to AU-A-78870/98
[3] = water or mixtures of water and C1-C4 alcohols, acetone or methyl ethyl ketone, even with heating (<40° C.)

kinetically stable up to (temperature) [1] | solubility in suspension solvents [3] | Compound | dissolution in water compared with Form I [2]
up to 40 °C | – | Cc1oncc1C(=O)Nc1ccc(C(F)(F)F)cc1 [Form II] | more readily dissolves in water than does Form I
– | poorly soluble | Cc1oncc1C(=O)Nc1ccc(C(F)(F)F)cc1 [leflunomide] | –
